Assay results reported in the supplement of paper PMC10307832.

Columns and labels:
Test in all cases: relative viability (nuclei count vs DMSO), 5 days (fraction); higher = more cells survive
[1] = compound: CC1=C(C(=NN1)C)CC2=C(C3=C(S2)N(C(=O)N(C3=O)C)CC(C)C)C(=O)N4C[C@@H](CO4)O + Nc1nc2[nH]cc(CCc3ccc(C(=O)N[C@@H](CCC(=O)O)C(=O)O)cc3)c2c(=O)[nH]1 [Pemetrexed] (partner 0.2 µM)
Summary of the method: (§1)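 Lung cancer cell lines, seeded in 1536-well plates, were treated the following day by pin tool with a single drug or with five library-drug doses (not always all listed) in √10 steps on top of a fixed anchor-drug dose. Cells were fixed and nuclei stained in one step after 5 days, and nuclei were counted. Relative viability is the nuclei count for treated wells divided by that for vehicle wells, reported as medians of duplicate plates.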

IDH-C35 + Vorinostat = compound: Cc1ccccc1C(C(=O)NC1CCCCC1)N(C(=O)Cn1ccnc1C)c1cccc(F)c1 [IDH-C35] + O=C(CCCCCCC(=O)Nc1ccccc1)NO [Vorinostat] (partner 1 µM)
Summary of the method: as §1

IDH-C35 + Pictilisib = compound: Cc1ccccc1C(C(=O)NC1CCCCC1)N(C(=O)Cn1ccnc1C)c1cccc(F)c1 [IDH-C35] + CS(=O)(=O)N1CCN(Cc2cc3nc(-c4cccc5[nH]ncc45)nc(N4CCOCC4)c3s2)CC1 [Pictilisib] (partner 1 µM)
Summary of the method: as §1

[2] = compound: CC1=C(C(=NN1)C)CC2=C(C3=C(S2)N(C(=O)N(C3=O)C)CC(C)C)C(=O)N4C[C@@H](CO4)O + O=C(c1cc(Cc2n[nH]c(=O)c3ccccc23)ccc1F)N1CCN(C(=O)C2CC2)CC1 [Olaparib] (partner 8 µM)
Summary of the method: as §1

NCI-H2405
relative viability ([1]; first compound 0.0025 µM): 1.15
relative viability ([1]; first compound 0.007906 µM): 1.22
relative viability ([1]; first compound 0.025 µM): 1.03
relative viability ([1]; first compound 0.07906 µM): 1
relative viability ([1]; first compound 0.25 µM): 0.795
relative viability (IDH-C35 + Vorinostat; first compound 0.08 µM): 1.08
relative viability (IDH-C35 + Vorinostat; first compound 0.253 µM): 0.956
relative viability (IDH-C35 + Vorinostat; first compound 0.8 µM): 0.968
relative viability (IDH-C35 + Vorinostat; first compound 2.53 µM): 1.24
relative viability (IDH-C35 + Vorinostat; first compound 8 µM): 1.02
relative viability (IDH-C35 + Pictilisib; first compound 0.08 µM): 0.487
relative viability (IDH-C35 + Pictilisib; first compound 0.253 µM): 0.363
relative viability (IDH-C35 + Pictilisib; first compound 0.8 µM): 0.377
relative viability (IDH-C35 + Pictilisib; first compound 8 µM): 0.52
relative viability ([2]; first compound 0.0025 µM): 0.876
relative viability ([2]; first compound 0.007906 µM): 0.806
relative viability ([2]; first compound 0.025 µM): 0.885
relative viability ([2]; first compound 0.07906 µM): 0.749
relative viability ([2]; first compound 0.25 µM): 0.875

NCI-H3122
relative viability ([1]; first compound 0.0025 µM): 0.196
relative viability ([1]; first compound 0.007906 µM): 0.202
relative viability ([1]; first compound 0.025 µM): 0.185
relative viability ([1]; first compound 0.07906 µM): 0.187
relative viability ([1]; first compound 0.25 µM): 0.216
relative viability (IDH-C35 + Vorinostat; first compound 0.08 µM): 1.01
relative viability (IDH-C35 + Vorinostat; first compound 0.253 µM): 0.947
relative viability (IDH-C35 + Vorinostat; first compound 0.8 µM): 0.793
relative viability (IDH-C35 + Vorinostat; first compound 2.53 µM): 0.773
relative viability (IDH-C35 + Vorinostat; first compound 8 µM): 1.08
relative viability (IDH-C35 + Pictilisib; first compound 0.08 µM): 0.628
relative viability (IDH-C35 + Pictilisib; first compound 0.253 µM): 0.572
relative viability (IDH-C35 + Pictilisib; first compound 0.8 µM): 0.592
relative viability (IDH-C35 + Pictilisib; first compound 2.53 µM): 0.611
relative viability (IDH-C35 + Pictilisib; first compound 8 µM): 0.598
relative viability ([2]; first compound 0.0025 µM): 0.62
relative viability ([2]; first compound 0.007906 µM): 0.659
relative viability ([2]; first compound 0.025 µM): 0.64
relative viability ([2]; first compound 0.07906 µM): 0.618
relative viability ([2]; first compound 0.25 µM): 0.628

PC-3 [JPC-3]
relative viability ([1]; first compound 0.0025 µM): 1.11
relative viability ([1]; first compound 0.007906 µM): 1.03
relative viability ([1]; first compound 0.025 µM): 1.01
relative viability ([1]; first compound 0.07906 µM): 1.27
relative viability ([1]; first compound 0.25 µM): 0.834
relative viability (IDH-C35 + Vorinostat; first compound 0.08 µM): 0.748
relative viability (IDH-C35 + Vorinostat; first compound 0.253 µM): 0.815
relative viability (IDH-C35 + Vorinostat; first compound 0.8 µM): 0.768
relative viability (IDH-C35 + Vorinostat; first compound 2.53 µM): 0.988
relative viability (IDH-C35 + Vorinostat; first compound 8 µM): 0.814
relative viability (IDH-C35 + Pictilisib; first compound 0.08 µM): 0.802
relative viability (IDH-C35 + Pictilisib; first compound 0.253 µM): 0.772
relative viability (IDH-C35 + Pictilisib; first compound 0.8 µM): 0.687
relative viability (IDH-C35 + Pictilisib; first compound 2.53 µM): 0.844
relative viability (IDH-C35 + Pictilisib; first compound 8 µM): 0.703
relative viability ([2]; first compound 0.0025 µM): 1.19
relative viability ([2]; first compound 0.007906 µM): 0.794
relative viability ([2]; first compound 0.025 µM): 1.14
relative viability ([2]; first compound 0.07906 µM): 1.07
relative viability ([2]; first compound 0.25 µM): 1.3

PC-14
relative viability ([1]; first compound 0.0025 µM): 0.158
relative viability ([1]; first compound 0.007906 µM): 0.126
relative viability ([1]; first compound 0.025 µM): 0.155
relative viability ([1]; first compound 0.07906 µM): 0.122
relative viability ([1]; first compound 0.25 µM): 0.121
relative viability (IDH-C35 + Vorinostat; first compound 0.08 µM): 0.749
relative viability (IDH-C35 + Vorinostat; first compound 0.253 µM): 0.81
relative viability (IDH-C35 + Vorinostat; first compound 0.8 µM): 0.748
relative viability (IDH-C35 + Vorinostat; first compound 2.53 µM): 0.76
relative viability (IDH-C35 + Vorinostat; first compound 8 µM): 0.649
relative viability (IDH-C35 + Pictilisib; first compound 0.08 µM): 0.712
relative viability (IDH-C35 + Pictilisib; first compound 0.253 µM): 0.685
relative viability (IDH-C35 + Pictilisib; first compound 0.8 µM): 0.641
relative viability (IDH-C35 + Pictilisib; first compound 2.53 µM): 0.575
relative viability (IDH-C35 + Pictilisib; first compound 8 µM): 0.642
relative viability ([2]; first compound 0.0025 µM): 0.295
relative viability ([2]; first compound 0.007906 µM): 0.203
relative viability ([2]; first compound 0.025 µM): 0.239
relative viability ([2]; first compound 0.07906 µM): 0.25
relative viability ([2]; first compound 0.25 µM): 0.368

RERF-LC-KJ
relative viability ([1]; first compound 0.0025 µM): 0.46
relative viability ([1]; first compound 0.007906 µM): 0.468
relative viability ([1]; first compound 0.025 µM): 0.463
relative viability ([1]; first compound 0.07906 µM): 0.511
relative viability ([1]; first compound 0.25 µM): 0.503
relative viability (IDH-C35 + Vorinostat; first compound 0.08 µM): 0.655
relative viability (IDH-C35 + Vorinostat; first compound 0.253 µM): 0.636
relative viability (IDH-C35 + Vorinostat; first compound 0.8 µM): 0.698
relative viability (IDH-C35 + Vorinostat; first compound 2.53 µM): 0.718
relative viability (IDH-C35 + Vorinostat; first compound 8 µM): 0.754
relative viability (IDH-C35 + Pictilisib; first compound 0.08 µM): 0.53
relative viability (IDH-C35 + Pictilisib; first compound 0.253 µM): 0.671
relative viability (IDH-C35 + Pictilisib; first compound 0.8 µM): 0.529
relative viability (IDH-C35 + Pictilisib; first compound 2.53 µM): 0.554
relative viability (IDH-C35 + Pictilisib; first compound 8 µM): 0.509
relative viability ([2]; first compound 0.0025 µM): 0.958
relative viability ([2]; first compound 0.007906 µM): 0.832
relative viability ([2]; first compound 0.025 µM): 1.04
relative viability ([2]; first compound 0.07906 µM): 0.926
relative viability ([2]; first compound 0.25 µM): 0.883

SK-LU-1
relative viability ([1]; first compound 0.0025 µM): 0.96
relative viability ([1]; first compound 0.007906 µM): 0.719
relative viability ([1]; first compound 0.025 µM): 0.736
relative viability ([1]; first compound 0.07906 µM): 0.745
relative viability ([1]; first compound 0.25 µM): 0.846
relative viability (IDH-C35 + Vorinostat; first compound 0.08 µM): 0.733
relative viability (IDH-C35 + Vorinostat; first compound 0.253 µM): 0.752
relative viability (IDH-C35 + Vorinostat; first compound 0.8 µM): 0.892
relative viability (IDH-C35 + Vorinostat; first compound 2.53 µM): 0.831
relative viability (IDH-C35 + Vorinostat; first compound 8 µM): 0.778
relative viability (IDH-C35 + Pictilisib; first compound 0.08 µM): 0.535
relative viability (IDH-C35 + Pictilisib; first compound 0.253 µM): 0.483
relative viability (IDH-C35 + Pictilisib; first compound 0.8 µM): 0.641
relative viability (IDH-C35 + Pictilisib; first compound 2.53 µM): 0.606
relative viability (IDH-C35 + Pictilisib; first compound 8 µM): 0.63
relative viability ([2]; first compound 0.0025 µM): 0.439
relative viability ([2]; first compound 0.007906 µM): 0.366
relative viability ([2]; first compound 0.025 µM): 0.266
relative viability ([2]; first compound 0.07906 µM): 0.332
relative viability ([2]; first compound 0.25 µM): 0.377

SK-MES-1
relative viability ([1]; first compound 0.0025 µM): 1.08
relative viability ([1]; first compound 0.007906 µM): 0.988
relative viability ([1]; first compound 0.025 µM): 0.857
relative viability ([1]; first compound 0.07906 µM): 0.967
relative viability ([1]; first compound 0.25 µM): 0.988
relative viability (IDH-C35 + Vorinostat; first compound 0.08 µM): 1.18
relative viability (IDH-C35 + Vorinostat; first compound 0.253 µM): 1.08
relative viability (IDH-C35 + Vorinostat; first compound 0.8 µM): 1.04
relative viability (IDH-C35 + Vorinostat; first compound 2.53 µM): 1.2
relative viability (IDH-C35 + Vorinostat; first compound 8 µM): 1.02
relative viability (IDH-C35 + Pictilisib; first compound 0.08 µM): 0.335
relative viability (IDH-C35 + Pictilisib; first compound 0.253 µM): 0.414
relative viability (IDH-C35 + Pictilisib; first compound 0.8 µM): 0.358
relative viability (IDH-C35 + Pictilisib; first compound 2.53 µM): 0.343
relative viability (IDH-C35 + Pictilisib; first compound 8 µM): 0.295
relative viability ([2]; first compound 0.0025 µM): 0.702
relative viability ([2]; first compound 0.007906 µM): 0.756
relative viability ([2]; first compound 0.025 µM): 0.691
relative viability ([2]; first compound 0.07906 µM): 0.82
relative viability ([2]; first compound 0.25 µM): 0.774

SW 1573
relative viability ([1]; first compound 0.0025 µM): 0.759
relative viability ([1]; first compound 0.007906 µM): 1.05
relative viability ([1]; first compound 0.025 µM): 0.773
relative viability ([1]; first compound 0.07906 µM): 0.853
relative viability ([1]; first compound 0.25 µM): 0.981
relative viability (IDH-C35 + Vorinostat; first compound 0.08 µM): 0.859
relative viability (IDH-C35 + Vorinostat; first compound 0.253 µM): 0.851
relative viability (IDH-C35 + Vorinostat; first compound 0.8 µM): 0.7
relative viability (IDH-C35 + Vorinostat; first compound 2.53 µM): 0.588
relative viability (IDH-C35 + Vorinostat; first compound 8 µM): 0.666
relative viability (IDH-C35 + Pictilisib; first compound 0.08 µM): 0.468
relative viability (IDH-C35 + Pictilisib; first compound 0.253 µM): 0.502
relative viability (IDH-C35 + Pictilisib; first compound 0.8 µM): 0.439
relative viability (IDH-C35 + Pictilisib; first compound 2.53 µM): 0.59
relative viability (IDH-C35 + Pictilisib; first compound 8 µM): 0.476
relative viability ([2]; first compound 0.0025 µM): 0.462
relative viability ([2]; first compound 0.007906 µM): 0.515
relative viability ([2]; first compound 0.025 µM): 0.521
relative viability ([2]; first compound 0.07906 µM): 0.468
relative viability ([2]; first compound 0.25 µM): 0.492
